Our source for the IC50 values is patent US20250051327A1, “MALT-1 MODULATORS” (EXSCIENTIA AI LIMITED, priority 2020, published 2025).

Test [1] relates to IL-2 secretion by human effector memory T cells (TEM). Kind of test: Effector memory T cells IL-2 release assay. It counts as cell-based. The following applies: T-cell; human CD4+ effector memory T cells, CD3/CD28 bead stimulation, 24 h; read-out: CD4TC IL2 IC50. The method, then:
Effector Memory T Cells IL-2 Release Assay
Test compound-mediated inhibition of NFκB signalling in T cells was assessed by quantification of the IL-2 secretion by human effector memory T cells (TEM) upon treatment and stimulation. Human TEM cells were isolated from buffy coats of healthy donors obtained from the French blood bank. First, peripheral blood mononuclear cells (PBMC) were purified from buffy coats diluted 1:1 with DPBS (Gibco, cat #14190-094) by Pancoll (PAN BIOTECH, cat #P04-60500) density gradient centrifugation at 400×g for 20 minutes. TEM cells were further enriched by negative immuno-magnetic cell sorting using a human CD4+ Effector Memory T Cell Isolation Kit (Miltenyi, cat #130-094-125) according to the manufacturer's instructions. Aliquots of 3×10E6 purified TEM cells were kept frozen in Cryo-SFM medium (PromoCell, cat #C-29912) in gas phase nitrogen until used. Cell purity was verified by flow cytometry analysis of 200 000 PFA-fixed cells previously labelled with monoclonal antibodies anti-CD4-PerCP-Cy5.5 (BD Pharmigen, cat #332772), anti-CD8-V500 (BD Biosciences, cat #561617), anti-CD14-Pacific Blue (Biolegend, cat #325616), anti-CD45 RA-FITC (Biolegend, cat #304106) and anti-CCR7-APC (in CD4+ Effector Memory T Cell Isolation Kit, Miltenyi, cat #130-094-125).
TEM cells were resuspended in complete RPMI medium composed of: RPMI 1640 (Gibco, cat #31870-025), 10% heat inactivated fetal bovine serum (Sigma, cat #F7524), 2 mM GlutaMAX (Gibco, cat #35050-038), 1 mM sodium pyruvate 100× (Gibco, cat #11360-039), 1% MEM non-essential amino acids solution (Gibco, cat #11140-035) and 100 U/mL penicillin, 100 μg/mL streptomycin (Sigma-Aldrich, cat #11074440001). 5,000 cells per well were plated onto flat clear bottom 384 well plates (Corning, cat #3770). 5,000 Dynabeads Human T-Activator CD3/CD28 (Gibco, cat #11132D) were added to each well for cell stimulation. Finally, 10 doses of test compound, originally prepared in DMSO by serial semi-log step dilution, were also added to cells in triplicate wells. Final DMSO concentration in wells was 0.1% in a total volume of 100 μL complete medium. Plates were incubated for 24 h at 37° C. in 5% CO2 atmosphere. After incubation, cell suspensions were centrifuged at 400×g and culture supernatants were recovered and stored at −80° C. Cell viability was assessed by flow cytometry after staining the cells with Fixable Viability Dye eFluor 780 (Invitrogen, cat #65-0865-14). IL-2 levels were determined in cell supernatants using an HTRF human IL-2 detection kit (Cisbio, cat #62HIL02PEH). IL-2 data at the different compound doses were fitted to a 4-parameter logistic curve to determine IC50 values, corresponding to the compound concentration leading to 50% reduction of the maximal IL-2 levels observed in each experiment. Viability data were analysed similarly to exclude cytotoxicity as a cause of IL-2 decrease (see Table 1).

In test [2] the target is Recombinant human MALT-1 (amino acids 340-824) (Homo sapiens (Human), UniProt Q9UDY8). Kind of test: MALT-1 inhibition assay (fluorogenic substrate Ac-LRSR-Rh110-DP). The conditions noted are these: recombinant human MALT-1, substrate Ac-LRSR-Rh110-DP. It counts as biochemical. The method, then:
MALT-1 paracaspase activity was measured using the fluorogenic substrate Ac-LRSR-Rh110-DP (purchased from Biosantan GmbH). […] The reaction was initiated by addition of substrate. Final concentrations of MALT-1 and substrate were 3 nM and 10 μM respectively. Reactions were incubated in the dark for 60 minutes at 25° C. […] Percent inhibition values were calculated from relative fluorescence units at different doses and fitted to a 4-parameter logistic curve to determine IC50 values (see Table 1).

Chain of Recombinant human MALT-1 (amino acids 340-824) (Q9UDY8 340-824): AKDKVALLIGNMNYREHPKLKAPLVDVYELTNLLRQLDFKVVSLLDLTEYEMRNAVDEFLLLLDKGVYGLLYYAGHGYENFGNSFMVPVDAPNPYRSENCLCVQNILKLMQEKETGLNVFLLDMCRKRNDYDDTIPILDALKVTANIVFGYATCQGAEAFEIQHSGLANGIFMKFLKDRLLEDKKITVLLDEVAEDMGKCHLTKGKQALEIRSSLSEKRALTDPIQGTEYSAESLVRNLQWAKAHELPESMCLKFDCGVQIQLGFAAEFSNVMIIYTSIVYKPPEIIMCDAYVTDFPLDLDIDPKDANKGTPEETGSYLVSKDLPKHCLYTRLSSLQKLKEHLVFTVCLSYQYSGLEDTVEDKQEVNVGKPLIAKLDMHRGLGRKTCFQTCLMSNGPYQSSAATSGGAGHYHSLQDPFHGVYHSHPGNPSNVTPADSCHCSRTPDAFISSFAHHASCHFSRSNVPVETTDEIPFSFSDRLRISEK

Consider `COc1ccc2ncc(Nc3ccc([C@H](N(C)C(=O)[C@H]4CC[S@@+]([O-])CC4)C(F)(F)F)cc3)c([C@H](C)OC)c2n1` (relative stereo) [CPD0072935, (1rel-s,4rel-s)-N-methyl-1-oxo-N-[(1S)-2,2,2-trifluoro-1-[4-({6-methoxy-4-[(1 rel-S)-1-methoxyethyl]-1,5-naphthyridin-3-yl}amino)phenyl]ethyl]-1λ^4-thiane-4-carboxamide], for which the 50% inhibitory concentration (IC50) in test [1] turned out to be 34 nM. `COc1ccc2ncc(Nc3ccc([C@H](N(C)C(=O)[C@@H]4CNC(=O)C4)C(F)(F)F)cc3)c([C@H](C)OC)c2n1` (relative stereo) [CPD0074550, (3 rel S)-N-methyl-5-oxo-N-[(1S)-2,2,2-trifluoro-1-[4-[6-methoxy-4-[(1 rel S)-1-methoxyethyl]-1,5-naphthyridin-3-yl]amino]phenyl]ethyl]pyrrolidine-3-carboxamide]: the 50% inhibitory concentration (IC50) in test [1] is 41 nM. Take `COc1ccc2ncc(Nc3ccc([C@H](N(C)C(=O)C4CCN(C(C)=O)CC4)C(F)(F)F)cc3)c([C@H](C)OC)c2n1` (relative stereo) [CPD0074559, 1-acetyl-N-methyl-N-[(1S)-2,2,2-trifluoro-1-[4-[6-methoxy-4-[(1 rel S)-1-methoxyethyl]-1,5-naphthyridin-3-yl]amino]phenyl]ethyl]piperidine-4-carboxamide]: the IC50 in test [1] amounted to 27 nM. Take `CN(C(=O)C1CCS(=O)(=O)CC1)[C@@H](c1ccc(N2CC3(CC3)Cc3c2cnc2cc(Cl)nn32)cc1)C(F)(F)F` [CPD0022148, N-[(1S)-1-(4-{4′-chloro-2′,3′,7′,10′-tetraazaspiro[cyclopropane-1,12′-tricyclo[7.4.0.0^2,6]tridecane]-1′(9′),3′,5′,7′-tetraen-10′-yl}phenyl)-2,2,2-trifluoroethyl]-N-methyl-1,1-dioxo-1λ^6-thiane-4-carboxamide]: in test [1], the IC50 was 116 nM. Same read-out and setting: under `COc1ccc2ncc(Nc3ccc([C@H](N(C)C(=O)C4CCS(=O)(=O)CC4)C(F)(F)F)cc3)c([C@@H]3CCOC3)c2n1` [CPD0074040] stands 33 nM.

As to `CN(C(=O)[C@H]1CC[S@@](=N)(=O)CC1)[C@@H](c1ccc(N2CC(C)(C)Cc3c2cnc2cc(Cl)nn32)cc1)C(F)(F)F` [CPD0073498, (1rel s, 4rel s)-N-[(1S)-1-(4-{4-chloro-12,12-dimethyl-2,3,7,10-tetraazatricyclo[7.4.0.0^2,6]trideca-1(9),3,5,7-tetraen-10-yl}phenyl)-2,2,2-trifluoroethyl]-1-imino-N-methyl-1-oxo-1λ^6-thiane-4-carboxamide], the IC50 in test [1] is 163 nM.

Take `CN(C(=O)[C@@H]1CS(=O)(=O)CC12COC2)[C@@H](c1ccc(N2CCCc3c2cnc2cc(Cl)nn32)cc1)C(F)(F)F` [CPD0073974, (8rel-R)-N-[(1S)-1-(4-{4-chloro-2,3,7,10-tetraazatricyclo[7.4.0.0^2,6]trideca-1(9),3,5,7-tetraen-10-yl}phenyl)-2,2,2-trifluoroethyl]-N-methyl-6,6-dioxo-2-oxa-6λ^6-thiaspiro[3.4]octane-8-carboxamide]: in test [1], the IC50 stood at 340 nM. Regarding `COc1ccc2ncc(Nc3ccc([C@H](N(C)C(=O)C4CCS(=O)(=O)CC4)C(F)(F)F)cc3)c([C@H]3CCOC3)c2n1` [CPD0074039], in test [1], the IC50 amounted to 34 nM. For `CN(C(=O)C1CCS(=O)(=O)CC1)[C@@H](c1ccc(N2CCC3(CC3)c3c2cnc2cc(Cl)nn32)nc1)C(F)(F)F` [CPD0021660, N-[(1S)-1-(6-{4′-chloro-2′,3′,7′,10′-tetraazaspiro[cyclopropane-1,13′-tricyclo[7.4.0.0^2,6]tridecane]-1′(9′),3′,5′,7′-tetraen-10′-yl}pyridin-3-yl)-2,2,2-trifluoroethyl]-N-methyl-1,1-dioxo-1λ^6-thiane-4-carboxamide], the IC50 in test [1] came out at 112 nM.

As to `COC[C@@H]1CCN(c2ccc([C@H](N(C)C(=O)C3CCS(=O)(=O)CC3)C(F)(F)F)cc2)c2cnc3cc(Cl)nn3c21` [CPD0073503, N-[(1S)-1-[4-[(13rel-R)-4-chloro-13-(methoxymethyl)-2,3,7,10-tetrazatricyclo[7.4.0.0^2,6]trideca-1(9),3,5,7-tetraen-10-yl]phenyl]-2,2,2-trifluoro-ethyl]-N-methyl-1,1-dioxo-16-thiane-4-carboxamide], the IC50 in test [1] turned out to be 209 nM.

Regarding `COc1ccc2ncc(Nc3ccc([C@H](N(C)C(=O)C4CCS(=O)(=O)CC4)C(F)(F)F)cn3)c(C(C)OC)c2n1` (some centres unmarked) [CPD0019007], the IC50 in test [1] was determined as 115 nM. Consider `COc1ccc2ncc(Nc3ccc([C@H](N(C)C(=O)[C@H]4CNC(=O)C4)C(F)(F)F)cc3)c([C@H](C)OC)c2n1` (relative stereo) [CPD0074562, (3 rel R)-N-methyl-5-oxo-N-[(1S)-2,2,2-trifluoro-1-[4-[[6-methoxy-4-[(1 rel S)-1-methoxyethyl]-1,5-naphthyridin-3-yl]amino]phenyl]ethyl]pyrrolidine-3-carboxamide], for which the IC50 in test [1] amounted to 68 nM. Consider `COC[C@H]1CCN(c2ccc([C@H](N(C)C(=O)C3CCS(=O)(=O)CC3)C(F)(F)F)cc2)c2cnc3cc(Cl)nn3c21` [CPD0073504, N-[(1S)-1-[4-[(13rel-S)-4-chloro-13-(methoxymethyl)-2,3,7,10-tetrazatricyclo[7.4.0.0^2,6]trideca-1(9),3,5,7-tetraen-10-yl]phenyl]-2,2,2-trifluoro-ethyl]-N-methyl-1,1-dioxo-1λ^6-thiane-4-carboxamide], for which the IC50 in test [1] came to 88 nM.

Turning to `C[C@H]1CCN(c2ccc([C@H](N(C)C(=O)[C@H]3CC[S@](=N)(=O)CC3)C(F)(F)F)cc2)c2cnc3cc(F)nn3c21` (relative stereo) [CPD0074553, (1rel s, 4rel s)1-imino-N-methyl-1-oxo-N-[(1S)-2,2,2-trifluoro-1-[4-[(13 rel S)-4-fluoro-13-methyl-2,3,7,10-tetrazatricyclo[7.4.0.0^2,6]trideca-1(9),3,5,7-tetraen-10-yl]phenyl]ethyl]thiane-4-carboxamide], the IC50 in test [1] stood at 162 nM. With `COc1ccc2ncc(Nc3ccc([C@H](N(C)C(=O)C4CCS(=O)(=O)CC4)C(F)(F)F)cc3)c([C@H]3CCCO3)c2n1` (relative stereo) [CPD0074043, N-methyl-1,1-dioxo-N-[(1S)-2,2,2-trifluoro-1-[4-[6-methoxy-4-[(2 rel-R)-tetrahydrofuran-2-yl]-1,5-naphthyridin-3-yl]amino]phenyl]ethyl]thiane-4-carboxamide], the IC50 in test [1] is 80 nM. For the molecule `CC(=O)N1CCC(C(=O)N(C)[C@@H](c2ccc(N3CCCc4c3cnc3cc(Cl)nn43)nc2)C(F)(F)F)CC1` [CPD0074051, 1-acetyl-N-[(1S)-1-[6-(4-chloro-2,3,7,10-tetrazatricyclo[7.4.0.0^2,6]trideca-1(9),3,5,7-tetraen-10-yl)-3-pyridyl]-2,2,2-trifluoro-ethyl]-N-methyl-piperidine-4-carboxamide], the IC50 in test [2] stood at 154 nM. On to `CN(C(=O)[C@@H]1CNC(=O)C1)[C@H](c1ccc(N2CCCc3c2cnc2cc(Cl)nn32)cc1)C(F)(F)F` (stereo in doubt) [CPD0077245, (3 rel-S)—N-[(1R)-1-[4-(4-chloro-2,3,7,10-tetrazatricyclo[7.4.0.0^2,6]trideca-1(9),3,5,7-tetraen-10-yl)phenyl]-2,2,2-trifluoro-ethyl]-N-methyl-5-oxo-pyrrolidine-3-carboxamide], for which, in test [2], the IC50 was found to be 355 nM.

The IC50 is the midpoint of a concentration-inhibition curve.
